Key:
[1] = test system: human monocytic THP-1 cells; experiment: cytotoxicity of beta-ionone on THP-1 cells (cellular viability)
Experimental: Human monocytic THP-1 cells (BCRC 60430, purchased from the Bioresource Collection and Research Center, Hsinchu, Taiwan) were cultured in RPMI 1640 medium and supplemented with 10% of fetal bovine serum, 0.05 mM of 2-mercaptoethanol, and 100 units/mL of penicillin G sodium, 100 μg/mL of streptomycin sulfate, and 250 ng/mL of amphotericin B at 37° C. in a 5% CO2 humidified environment.
THP-1 cells are seeded at 2×10^5 cells/well in a 96-well plate with FBS-free RMPI 1640 medium, and are stimulated with Propionibacterium acnes (multiplicity of infection=75) alone or in combination with various concentrations of 10, 20, 50 μM of beta-ionone for a 24-h incubation.

[2] = test system: P. acnes-induced IL-8 production by THP-1 cells; experiment: inhibition of P. acnes-induced IL-8 production by THP-1 cells (enzyme immunoassay); format: cell-based, Human; details: 10, 20, 50 μM; P. acnes MOI 75; 24-h incubation; p<0.001
Experimental: Propionibacterium acnes (BCRC 10723, purchased from the Bioresource Collection and Research Center, Hsinchu, Taiwan) was cultured in a brain heart infusion (BHI) broth. The bacteria were cultured in an anaerobic atmosphere using BBL GasPak systems.

[3] = test system: Propionibacterium acnes-induced ear swelling in ICR mice; experiment: P. acnes-induced mouse ear inflammation (ear thickness, biopsy weight, redness, neutrophil infiltration); format: in vivo
From the text: In the animal experiment of this embodiment, four-week-old male […] were purchased from the Experimental Animal Center of the National Taiwan University. After 1 week of adaptation, the mice were randomly divided into three groups of six animals each. The three groups of mice are, namely a blank control group of mice injected with a phosphate buffer solution (hereinafter referred to as “PBS-control”), an experimental group of mice injected with Propionibacterium acnes (hereinafter referred to as “P. acnes group”), and an experimental group of mice injected with Propionibacterium acnes and beta-ionone (hereinafter referred to as “P. acnes+beta-ionone group”). Mice were housed in plastic cages, under standard temperature-controlled conditions with a 12 h/12 h light-dark cycle and free access to food and water throughout the experiments. The experiments are each carried out by following the steps described below, so as to inject 10 µL of liquid (phosphate buffer solution (PBS), P. acnes, or P. acnes+beta-ionone) into the mice' ears, respectively. […] Mercy killing is carried out to all the mice 24 hours after the aforesaid injections, and then the ear's swelling induced by P. acnes was quantified as the percentage increases in the thickness and weight of the left ear biopsy. The thickness of the mice's ears is measured with a micrometer caliper. […]

SMILES: CC(=O)/C=C/C1=C(C)CCCC1(C)C [beta-ionone, (3E)-4-(2,6,6-trimethylcyclohex-1-en-1-yl)but-3-en-2-one]
- cytotoxic effect on human monocytic THP-1 cells ([1]; beta-ionone at 10, 20, 50 μM): does not have any cytotoxic effect
- concentration with cytotoxic effect on THP-1 cells ([1]; cellular viability compared with untreated control, p<0.05, p<0.001): ≥ 100 µM
- inhibitory effect on P. acnes-induced IL-8 production by THP-1 cells [2]: marked inhibitive effect
- effect on redness, neutrophils infiltration and swelling (ear thickness and biopsy weight) caused by P. acnes ([3]; 50 μg/10 μL injected into ear with 6×10^7 CFU P. acnes, 24 hours, p<0.01, p<0.001): effective in reducing the redness, neutrophils infiltration, and swelling
- redness and swelling of right ears (P. acnes + beta-ionone) versus left ears (P. acnes) ([3]; 50 μg/10 μL injected into ear, 24 hours after injection, FIG. 9): significantly abated redness and swelling

From US20160143862A1, “METHOD OF USING BETA-IONONE TO TREAT AND PREVENT DISEASE INDUCED BY PROPIONIBACTERIUM ACNES” (NATIONAL TAIWAN NORMAL UNIVERSTITY, priority 2014, published 2016)
